Entries after “also recorded” stand apart in the source; their conditions may differ. Read-outs that look alike come from different tables or passages of the source.
Tests used:
RXRα = molecular target: T1, RXRα (Homo sapiens, UniProt P19793); assay: RXRα binding (competition with tritiated LGD1069)
T1 sequence (P19793 1-462): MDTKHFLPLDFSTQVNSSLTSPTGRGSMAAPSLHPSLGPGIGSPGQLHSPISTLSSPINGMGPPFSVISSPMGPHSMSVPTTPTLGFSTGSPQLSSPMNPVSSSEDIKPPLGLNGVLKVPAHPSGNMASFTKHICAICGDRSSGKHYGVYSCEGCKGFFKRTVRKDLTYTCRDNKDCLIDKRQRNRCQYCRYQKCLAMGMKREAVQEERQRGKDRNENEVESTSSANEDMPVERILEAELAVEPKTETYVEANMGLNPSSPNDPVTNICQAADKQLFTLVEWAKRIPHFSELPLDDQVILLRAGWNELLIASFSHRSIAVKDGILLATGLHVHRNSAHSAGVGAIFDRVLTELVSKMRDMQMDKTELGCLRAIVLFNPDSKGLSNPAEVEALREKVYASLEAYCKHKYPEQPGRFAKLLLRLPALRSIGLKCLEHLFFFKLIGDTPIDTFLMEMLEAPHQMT
Procedure: Non-specific binding was defined as that binding remaining in the presence of 500 nM of the appropriate unlabelled compound. At the end of the incubation period, bound ligand was separated from free. The amount of bound tritiated retinoid was determined by liquid scintillation counting of an aliquot (700 μL) of the supernatant fluid or the hydroxylapatite pellet.
After correcting for non-specific binding, IC50 values were determined. […] The IC50 value was determined graphically from a log-logit plot of the data. The Ki values were determined by application of the Cheng-Prussof equation to the IC50 values, the labeled ligand concentration and the Kd of the labeled ligand.

RXRα homodimer (RXR:RXR) = molecular target: T2, RXRα homodimer (RXR:RXR) (Homo sapiens, UniProt P19793); assay: RXR homodimer co-transfection assay in CV-1 cells; assay type: cell-based; conditions: for activity on the RXR:RXR homodimer: cotransfection assay; for RXR:RXR CV-1 (%) Antag.: maximal repression (100%) in presence of 32 nM LGD1069; for RXR:RXR CV-1 (%) Ag.: maximal response relative to ATRA; for EC50 / IC50: not calculated if efficacy <10%; for EC50: read-out: RXRα Homodimer Cotransfection Assay Agonist EC50; for IC50: in presence of LGD1069, read-out: RXRα Homodimer Cotransfection Assay Antagonist IC50
T2 sequence (P19793 1-462): T1 sequence (P19793 1-462)
Text: In the co-transfection assay, cloned cDNA for one or more IRs (e.g., human RARα, RXRα, or PPARγ), alone or in combination (i.e. for heterodimer assays) under the control of a constitutive promoter (e.g., the SV 40, RSV or CMV promoter) is introduced by transfection (a procedure to introduce exogenous genes into cells) into a background cell substantially devoid of endogenous IRs. These introduced gene(s) direct the recipient cells to make the IR protein(s) of interest. A further gene is also introduced (co-transfected) into the same cells in conjunction with the IR gene(s). This further gene, comprising the cDNA for a reporter protein, such as firefly luciferase (LUC), controlled by an appropriate hormone responsive promoter containing a hormone response element (HRE). This reporter plasmid functions as a reporter for the transcriptional-modulating activity of the target IR(s). Thus, the reporter acts as a surrogate for the products (mRNA then protein) normally expressed by a gene under control of the target receptor(s) and their native hormone(s).
Exposing the transfected cells to an agonist ligand compound increases reporter activity in the transfected cells. This activity can be conveniently measured, e.g., by increasing luciferase production and enzymatic activity, which reflects compound-dependent, IR-mediated increases in reporter transcription. […] Increasing concentrations of an antagonist will decrease the reporter signal (e.g., luciferase production). The co-transfection assay is therefore useful to detect both agonists and antagonists of specific IRs. Furthermore, it determines not only whether a compound interacts with a particular IR, but whether this interaction mimics (agonizes) or blocks (antagonizes) the effects of native or synthetic regulatory molecules on target gene expression, as well as the specificity and strength of this interaction.
The receptor expression plasmid was cotransfected along with a reporter plasmid at 50 ng/well, the internal control plasmid pRS-β-Gal at 50 ng/well and filler DNA, pGEM, at 90 ng/well.
Six hours after transfection, media was removed and the cells were washed with phosphate-buffered saline (PBS). Media containing compounds of the present invention in concentrations ranging from 10^−10 to 10^−5 M were added to the cells. […] Retinoids were dissolved in dimethylsulfoxide for use in the transcriptional activation assays. Two to three replicates were used for each sample. Transfections and subsequent procedures were performed on a Biomek 1000 automated workstation.
After 40 hours, the cells were washed with PBS, lysed with a detergent-based buffer and assayed for LUC and β-Gal activities using a luminometer or spectrophotometer, respectively. For each replicate, the normalized response (NR) was calculated as: […]
The mean and standard error of the mean (SEM) of the NR were calculated. Data were plotted as the response of the compound compared to the reference compounds over the range of the dose-response curve. […] Antagonist activity was determined by testing the amount of LUC expression in the presence of the RXR agonists described above at the EC50 concentration for such known compounds. […] In addition, the efficacy of antagonists was determined as a function (%) of maximal inhibition.

RXRα:RAR heterodimer = molecular target: T3, RXRα:RAR heterodimer (Homo sapiens, UniProt P19793); assay: RXR:RAR heterodimer co-transfection assay in CV-1 cells; assay type: cell-based; conditions: for agonist activity on the RXR:RAR heterodimer: compound alone; for RXR:RAR CV-1 (%) Antag.: maximal repression (100%) in presence of 10 nM TTNPB; for RXRα:RAR Heterodimer Cotransfection Assay Antagonist Efficacy (%): relative to maximal repression (100%) in presence of 10 nM TTNPB; for antagonist activity on the RXR:RAR heterodimer: antagonist assay
T3 construct: expressed in transfected cells; host or cells: CV-1 cells
T3 sequence (P19793 1-462): T1 sequence (P19793 1-462)
How it was run: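 Cells co-transfected with the heterodimer were given compound at 10^−10 to 10^−5 M. Agonist efficacy was the maximum response over the dose–response curve relative to the reference agonist's maximum. Antagonist efficacy was expressed as % maximal inhibition.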

db/db mouse = db/db mouse study (rodent model of Type II diabetes); conditions: for db/db mouse Glu. (D 14): plasma glucose, 100 mg/kg daily oral gavage; for db/db mouse Glu. (D 14) / db/db mouse Trigs. (D 14): day 14
Procedure: Mice (obtained from Jackson Laboratory), ZDF rats (obtained from Genetic Models Inc.) and fa/fa rats (obtained from either Charles River, or Harlan) were maintained on 12-hour light/dark cycle. […] Compounds were administered at the specified doses by oral gavage on the morning of each day of any experiment. Blood samples were obtained 3 hours after dosing from fed animals under anesthesia and collected into heparinized capillary tubes from the tail vein.

[1] = Table 3, mean of n > 3, read-out: RXRα Binding Ki
[2] = from IC50 by Cheng-Prussof equation, tritiated LGD1069, read-out: Bind RXRα Ki
[3] = Table 3 c4, in presence of 3.2×10^−8 M LGD1069
[4] = CV-1, read-out: RXR:RAR CV-1 (%) Ag.
[5] = CV-1, read-out: RXRα:RAR Heterodimer Cotransfection Assay Agonist Efficacy (%)
[6] = % correction relative to lean values
[7] = plasma triglycerides, % correction relative to lean values, NC = no change
[8] = rodent models of Type II Diabetes

SMILES | Ki (RXRα; [1]) | Ki (RXRα; [2]) | RXRα Homodimer Cotransfection Assay Agonist Efficacy (%) (RXRα homodimer (RXR:RXR); Table 3 c2, mean of n > 3) | RXRα Homodimer Cotransfection Assay Agonist Efficacy (%) (RXRα homodimer (RXR:RXR); [3]) | activity on the RXR:RXR homodimer (RXRα homodimer (RXR:RXR)) | RXR:RXR CV-1 (%) Antag. (RXRα homodimer (RXR:RXR)) | RXR:RXR CV-1 (%) Ag. (RXRα homodimer (RXR:RXR)) | EC50 (RXRα homodimer (RXR:RXR)) | Emax (RXRα:RAR heterodimer; [4]) | Emax (RXRα:RAR heterodimer; [5]) | agonist activity on the RXR:RAR heterodimer (RXRα:RAR heterodimer) | RXR:RAR CV-1 (%) Antag. (RXRα:RAR heterodimer) | RXRα:RAR Heterodimer Cotransfection Assay Antagonist Efficacy (%) (RXRα:RAR heterodimer) | db/db mouse Glu. (D 14) (db/db mouse; [6]) | db/db mouse Trigs. (D 14) (db/db mouse; [7]) | effect on the thyroid hormone axis (db/db mouse; [8]) | IC50 (RXRα homodimer (RXR:RXR)) | antagonist activity on the RXR:RAR heterodimer (RXRα:RAR heterodimer) | insulin sensitizing activity with thyroid axis suppression and triglyceride elevations (db/db mouse; [8]) | other results
COc1c(/C(C)=C/C=C/C(C)=C/C(=O)O)cc(C(C)(C)C)cc1C(C)(C)C [Compound L1] | 1.1 nM | 1.1 nM | 62% | 7% | full RXR homodimer agonists; also recorded: agonist activity similar in efficacy and potency to the known RXR agonist, LG100268 | 7% | 62% | 33 nM | 21% | 21% | weak agonist activity alone | 19% | 19% | 96% | 54% | suppress the thyroid hormone axis | – | – | – | db/db mouse Trigs. (D3) (db/db mouse; plasma triglycerides, % correction relative to lean values, day 3, NC = no change): 300%; effect on triglycerides (db/db mouse; [8]): raise triglycerides; insulin sensitizing activity / effect on glucose (db/db mouse; [8]): efficacious insulin sensitizers
CCOc1c(/C(C)=C/C=C/C(C)=C/C(=O)O)cc(C(C)(C)C)cc1C(C)(C)C [Compound L2] | 13 nM | 13 nM | 11% | 62% | partial agonist | 62% | 11% | 14 nM | 6% | 6% | not active in the RXR:RAR assay | 49% | 49% | 91% | 116% | suppresses thyroid hormone axis | 9 nM | – | – | db/db mouse T4 (D 3) (db/db mouse; total T4 as % of obese control values, day 3, NC = no change): 45%
CCCOc1c(/C(C)=C/C=C/C(C)=C/C(=O)O)cc(C(C)(C)C)cc1C(C)(C)C [Compound L3] | 1.1 nM | 1 nM | 2% | 90% | highly efficacious and potent antagonist activity with little or no agonist activity | 90% | 2% | – | 5% | 5% | not active as RXR:RAR agonists | 84% | 84% | 75% | 133% | absence of detectable suppression of the thyroid hormone axis; also recorded: does not | 5 nM | significant RXR:RAR antagonist activity | maintain the desirable insulin sensitizing activity and eliminate or reduce both the suppression of the thyroid axis and triglyceride elevations; also recorded: maintain the desirable insulin sensitizing activity and minimize both the suppression of the thyroid axis and triglyceride elevations | RXR:RAR antagonist activity relative to L2 (RXRα:RAR heterodimer; comparison of L3 with L2): approximately twice the RXR:RAR antagonist activity as L2
CCCCOc1c(/C(C)=C/C=C/C(C)=C/C(=O)O)cc(C(C)(C)C)cc1C(C)(C)C [Compound L4] | 0.9 nM | 1 nM | 1% | 92% | highly efficacious and potent antagonist activity with little or no agonist activity | 92% | 1% | – | 2% | 2% | not active as RXR:RAR agonists | 88% | 88% | 50% | 105% | absence of detectable suppression of the thyroid hormone axis | 9 nM | significant RXR:RAR antagonist activity | maintain the desirable insulin sensitizing activity and eliminate or reduce both the suppression of the thyroid axis and triglyceride elevations; also recorded: maintain the desirable insulin sensitizing activity and minimize both the suppression of the thyroid axis and triglyceride elevations | –
